US5614521A, “Benzene derivatives having NGF production-promoting activity” (Sankyo Company, Limited, priority 1991, dated 1997)

System: L-M cells
Experiment: NGF production and secretion by mouse L-M cells (NGF promoter activity), NGF level by enzyme immunoassay
Assay type: cell-based
Conditions: 24 h, read-out: % Control (NGF produced and secreted relative to cells not treated with the test compounds)
Excerpt: Furukawa et al. have reported that fibroblast-forming L-M cells from mouse connective tissue can produce and secrete a relatively large amount of NGF, and that catecholamines accelerate such production and secretion of NGF (J. Biol. Chem., 261, 6039-6047, 1986). […] The test compounds of this invention were employed at 10 γ/ml, and the known compounds were employed at 20 γ/ml.
Culture medium 199 containing 0.5% peptone was used for culturing L-M cells (for the culture medium 199, see, for instance, Morgan et al., proc. Soc. Exp. Biol. Med., 73, 1 (1950) or Morgan et al. J. Natl. Cancer Inst., 16, 557 (1955). About […] of L-M cells were placed in each well of a culture plate with 24 wells, and cultured using a CO2 incubator (37° C., 5% CO2) until confluence. After removing the culture medium, the cultured cells were washed once with a wash solution which was 199 culture medium containing 0.5% bovine serum albumin (Fraction V, Sigma). The test compounds were added to a specified concentration to a 199 culture medium containing 0.5% bovine serum albumin, and used to treat 0.5 ml of L-M cells. After culturing the L-M cells in a CO2 incubator for 24 hours, the medium was recovered and the NGF level was determined.
NGF was quantitatively determined using an enzyme immunoassay [Korshing, Thoenen, et al. Proc. Natl. Acad. Sci. USA, 80, 3513-3516, (1983)]. 75 μl of a solution of anti-mouse β-NGF antibody (0.3 μg/ml, pH 9.6; Boehringer Mannheim) was piperted into each well of a polystyrene plate with 96 wells. After allowing the plate to stand at room temperature for an hour, the antibody was removed by washing three times with the wash solution. 50 μl of a solution of standard β-NGF (Wako Pure Chemical Industries Ltd.) or of the recovered medium was piperted into the wells. After allowing the plate to stand for […] at room temperature,the standard β-NGF or test solution was removed and each well was washed three times. 50 μl of a solution of β-NGF monoclonal antibody (100 mU/ml, pH 7.0; BoehringerMannheim) labelled with β-galactosidase was piperted into each well. After allowing the plate to stand at 4° C. for 15-18 hours, enzyme labelled antibody was removed and the wells washed three times followed by pipetting 100 μl of a solution of chlorophenol red-β-D-galactopyranoside (1 mg/ml, pH 7.3; BoehringerMannheim) into each well. Color was allowed to develop (after 2-3 hours at room temperature), and the absorbance was determined at 570 nm.
The amount of NGF was calculated from a standard curve. The results are expressed as a relative value (%) which is relative to the amount of NGF produced and secreted by cells treated not with the test compounds. The numerical values (% Control) are expressed by the mean value in the 3 wells of the control (without addition of the test compounds).

SMILES	activity at 20 µg/mL
CNC[C@H](O)c1ccc(O)c(O)c1 [epinephrine, reference compound]	140 ± 24%

Same assay, conditions: known compounds at 20 γ/ml, L-M cells, 24 hours, 37° C., read-out: % Control (NGF produced and secreted relative to cells not treated with the test compounds)

SMILES	activity at 20 µg/mL
N[C@@H](Cc1ccc(O)c(O)c1)C(=O)O [L-DOPA, reference compound]	117 ± 7%
O=C(O)/C=C/c1ccc(O)c(O)c1 [caffeic Acid, reference compound]	123 ± 14%
CC(C)NCC(O)c1ccc(O)c(O)c1 (stereo not drawn) [isoproterenol, reference compound]	168 ± 22%

Same assay, conditions: test compounds of this invention at 10 γ/ml, L-M cells, 24 hours, 37° C., read-out: % Control (NGF produced and secreted relative to cells not treated with the test compounds)

SMILES	activity at 10 µg/mL
Nc1ccc(CCC(=O)NC23CC4CC(CC(C4)C2)C3)cc1N [Example 22, N-(1-Adamantyl)-3-(3,4-diaminophenyl)propionamide]	380%
Nc1ccc(CCC(=O)Nc2cnc3ccccc3c2)cc1N [Example 34, N-(3-Quinolyl)-3-(3,4-diaminophenyl)propiomide]	606%
Nc1ccc(CCC(=O)N(c2ccccc2)c2ccccc2)cc1N [Example 40, N,N-Diphenyl-3-(3,4-diaminophenyl) propionamide]	276%
Nc1ccc(CCC(=O)Nc2ccc(C(=O)c3ccccc3)cc2)cc1N [Example 43, N-(4-Benzoylphenyl)-3-(3,4-diaminophenyl)propionamide]	491%
Nc1cc(CCC(=O)NC2CCc3ccccc32)ccc1O (stereo not drawn) [Example 53, N-(1-Indanyl)-3-(4-hydroxy-3-aminophenyl)propionamide]	315%
